Where a name gives a salt, the structure may show the parent alone. Read-outs that look alike come from different tables or passages of the source.
How the values were obtained:
Assay type in all cases: biochemical
Human HDAC1 = Human HDAC1 (Homo sapiens (Human), UniProt Q13547); experiment: HDAC1 fluorogenic peptide deacetylation inhibition assay
Human HDAC6 = Human HDAC6 (Homo sapiens (Human), UniProt Q9UBN7); experiment: HDAC6 fluorogenic peptide deacetylation inhibition assay; details: for HDAC6 Selectivity (HDAC1/HDAC6): ratio HDAC1 IC50/HDAC6 IC50; for BEI: binding efficiency index, BEI=pIC50/MW, MW in kDa
HDAC8 = HDAC8 (Homo sapiens (Human), UniProt Q9BY41); experiment: HDAC8 inhibition assay (fluorogenic diacyl peptide)
HDAC2 = HDAC2 (Homo sapiens (Human), UniProt Q92769); experiment: HDAC2 fluorogenic peptide deacetylation inhibition assay; details: average of two experiments; read-out: HDAC Isoform IC50 (μM) 2
HDAC9 = HDAC9 (Homo sapiens (Human), UniProt Q9UKV0); experiment: HDAC9 inhibition assay (Acetyl-Lys(trifluoroacetyl)-AMC substrate); details: average of two experiments; read-out: HDAC Isoform IC50 (μM) 9
[1] = average of two experiments, read-out: HDAC Isoform IC50 (μM) 1
[2] = average of two experiments, read-out: HDAC Isoform IC50 (μM) 6
[3] = average of two experiments, read-out: HDAC Isoform IC50 (μM) 8
[4] = Table 3, mean of two experiments ± standard deviation, read-out: HDAC1 IC50
[5] = Table 3, mean of two experiments ± standard deviation, read-out: HDAC6 IC50
[6] = Table 3, mean of two experiments ± standard deviation, read-out: HDAC8 IC50

Sequence of Human HDAC6 (Q9UBN7 whole entry): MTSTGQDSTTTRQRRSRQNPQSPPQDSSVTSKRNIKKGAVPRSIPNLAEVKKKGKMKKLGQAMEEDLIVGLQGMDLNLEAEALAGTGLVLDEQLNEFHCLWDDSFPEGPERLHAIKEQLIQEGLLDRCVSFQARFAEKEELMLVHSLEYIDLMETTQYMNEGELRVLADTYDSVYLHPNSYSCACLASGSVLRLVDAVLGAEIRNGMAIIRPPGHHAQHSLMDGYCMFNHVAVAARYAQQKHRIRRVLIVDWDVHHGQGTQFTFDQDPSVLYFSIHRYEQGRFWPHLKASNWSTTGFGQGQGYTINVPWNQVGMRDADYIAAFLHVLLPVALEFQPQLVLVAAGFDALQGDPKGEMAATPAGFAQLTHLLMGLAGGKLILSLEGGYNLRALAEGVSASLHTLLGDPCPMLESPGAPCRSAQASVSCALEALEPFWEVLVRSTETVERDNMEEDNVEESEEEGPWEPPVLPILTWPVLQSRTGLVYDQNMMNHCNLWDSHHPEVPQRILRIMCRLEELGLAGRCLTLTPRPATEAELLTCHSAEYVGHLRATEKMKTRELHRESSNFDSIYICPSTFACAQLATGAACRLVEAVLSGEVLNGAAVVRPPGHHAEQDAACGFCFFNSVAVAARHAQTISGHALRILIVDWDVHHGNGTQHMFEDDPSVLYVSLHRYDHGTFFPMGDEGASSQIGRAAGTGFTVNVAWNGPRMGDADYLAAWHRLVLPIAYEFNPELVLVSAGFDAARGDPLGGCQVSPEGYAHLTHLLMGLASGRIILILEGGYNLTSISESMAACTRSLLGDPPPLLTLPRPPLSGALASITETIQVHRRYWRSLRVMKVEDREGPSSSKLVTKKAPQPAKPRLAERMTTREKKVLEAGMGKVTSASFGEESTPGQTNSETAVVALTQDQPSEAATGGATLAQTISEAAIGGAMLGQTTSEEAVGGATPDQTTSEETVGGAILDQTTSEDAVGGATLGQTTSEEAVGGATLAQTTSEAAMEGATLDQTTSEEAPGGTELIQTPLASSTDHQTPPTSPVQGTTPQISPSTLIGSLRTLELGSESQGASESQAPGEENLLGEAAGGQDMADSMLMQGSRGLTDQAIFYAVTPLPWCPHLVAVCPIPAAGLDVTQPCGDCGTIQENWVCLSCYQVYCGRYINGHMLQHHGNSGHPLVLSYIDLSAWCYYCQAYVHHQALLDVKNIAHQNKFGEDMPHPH
Sequence of HDAC8 (Q9BY41 whole entry, canonical isoform): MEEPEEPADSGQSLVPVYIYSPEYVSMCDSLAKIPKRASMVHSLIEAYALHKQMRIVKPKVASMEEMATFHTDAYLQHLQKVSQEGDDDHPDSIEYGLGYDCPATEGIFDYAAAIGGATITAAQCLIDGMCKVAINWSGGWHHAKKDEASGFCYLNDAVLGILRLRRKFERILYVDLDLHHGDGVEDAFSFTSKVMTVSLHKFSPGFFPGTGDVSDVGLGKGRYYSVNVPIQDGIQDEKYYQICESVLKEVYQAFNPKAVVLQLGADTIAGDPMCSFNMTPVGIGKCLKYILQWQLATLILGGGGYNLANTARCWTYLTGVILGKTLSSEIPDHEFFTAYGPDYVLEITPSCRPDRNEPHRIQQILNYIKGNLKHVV
Sequence of Human HDAC1 (Q13547 whole entry): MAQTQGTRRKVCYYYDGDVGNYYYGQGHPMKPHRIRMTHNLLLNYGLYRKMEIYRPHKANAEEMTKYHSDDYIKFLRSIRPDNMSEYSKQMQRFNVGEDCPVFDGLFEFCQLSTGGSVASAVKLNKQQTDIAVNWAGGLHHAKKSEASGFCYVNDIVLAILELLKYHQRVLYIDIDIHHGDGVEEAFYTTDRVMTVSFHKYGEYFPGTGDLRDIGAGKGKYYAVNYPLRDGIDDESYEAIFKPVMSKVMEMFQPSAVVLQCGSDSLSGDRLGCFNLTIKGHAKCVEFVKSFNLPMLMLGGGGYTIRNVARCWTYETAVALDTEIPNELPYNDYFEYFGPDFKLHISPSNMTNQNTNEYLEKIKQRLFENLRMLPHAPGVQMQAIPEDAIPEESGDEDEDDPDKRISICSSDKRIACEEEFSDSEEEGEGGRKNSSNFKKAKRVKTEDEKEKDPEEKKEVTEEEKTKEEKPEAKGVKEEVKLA
Sequence of HDAC2 (Q92769 whole entry, canonical isoform): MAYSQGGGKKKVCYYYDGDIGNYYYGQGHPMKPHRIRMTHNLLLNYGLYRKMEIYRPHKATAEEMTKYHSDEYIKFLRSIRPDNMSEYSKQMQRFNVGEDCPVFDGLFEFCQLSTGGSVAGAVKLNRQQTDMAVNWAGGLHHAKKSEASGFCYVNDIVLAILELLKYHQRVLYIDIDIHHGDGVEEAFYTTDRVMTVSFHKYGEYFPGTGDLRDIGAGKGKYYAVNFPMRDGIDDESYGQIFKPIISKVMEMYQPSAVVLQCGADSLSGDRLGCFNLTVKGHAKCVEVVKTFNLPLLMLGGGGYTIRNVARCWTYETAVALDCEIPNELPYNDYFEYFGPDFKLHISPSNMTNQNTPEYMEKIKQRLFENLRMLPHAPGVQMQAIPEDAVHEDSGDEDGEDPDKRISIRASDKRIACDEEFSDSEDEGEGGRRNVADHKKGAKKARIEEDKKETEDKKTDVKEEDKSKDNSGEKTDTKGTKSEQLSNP
Sequence of HDAC9 (Q9UKV0 whole entry, canonical isoform): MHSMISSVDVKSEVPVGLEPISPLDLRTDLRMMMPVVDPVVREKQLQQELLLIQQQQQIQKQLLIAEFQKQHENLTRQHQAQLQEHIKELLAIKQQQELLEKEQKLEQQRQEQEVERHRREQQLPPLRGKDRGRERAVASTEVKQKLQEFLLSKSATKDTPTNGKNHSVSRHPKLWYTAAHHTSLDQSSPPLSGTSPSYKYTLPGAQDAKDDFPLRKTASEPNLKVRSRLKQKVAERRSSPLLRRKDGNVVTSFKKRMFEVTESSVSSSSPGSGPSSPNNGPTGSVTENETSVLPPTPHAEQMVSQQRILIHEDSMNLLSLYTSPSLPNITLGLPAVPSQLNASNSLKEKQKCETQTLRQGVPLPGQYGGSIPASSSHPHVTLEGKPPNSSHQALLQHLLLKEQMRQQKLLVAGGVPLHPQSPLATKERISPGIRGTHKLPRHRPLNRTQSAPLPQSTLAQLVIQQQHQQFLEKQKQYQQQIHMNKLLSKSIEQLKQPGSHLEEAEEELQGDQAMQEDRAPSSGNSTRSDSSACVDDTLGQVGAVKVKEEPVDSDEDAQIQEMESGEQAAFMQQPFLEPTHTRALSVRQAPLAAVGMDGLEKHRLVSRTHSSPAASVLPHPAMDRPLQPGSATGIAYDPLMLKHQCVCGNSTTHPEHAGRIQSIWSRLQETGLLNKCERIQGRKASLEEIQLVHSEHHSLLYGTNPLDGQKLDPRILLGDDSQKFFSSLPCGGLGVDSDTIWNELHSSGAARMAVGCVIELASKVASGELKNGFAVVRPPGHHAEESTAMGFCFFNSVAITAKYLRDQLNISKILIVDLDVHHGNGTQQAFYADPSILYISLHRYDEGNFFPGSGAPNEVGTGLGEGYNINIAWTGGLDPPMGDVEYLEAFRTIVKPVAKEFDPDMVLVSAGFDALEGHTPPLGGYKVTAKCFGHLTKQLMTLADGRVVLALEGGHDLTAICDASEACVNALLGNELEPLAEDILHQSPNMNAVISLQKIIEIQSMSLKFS

Structure (SMILES)	IC50 (Human HDAC1; [1]) [µM]	IC50 (Human HDAC6; [2]) [µM]	HDAC6 Selectivity (HDAC1/HDAC6) (Human HDAC6)	also measured
O=C(NO)c1ccc(CN(c2ccccc2)c2ccccc2)cc1 [Compound 55, 4-((Diphenylamino)methyl)-N-hydroxybenzamide]	6.66	4.5		selectivity for HDAC6 vs HDAC8 (Human HDAC6): over 500 fold; IC50 (HDAC8; [3]): 2.38 µM
O=C(NO)c1ccc(Cn2cccc2)cc1 [drawing 147]			183	
Cc1cn(Cc2ccc(C(=O)NO)cc2)c2ccccc12 [Compound 6, N-Hydroxy-4-((3-methyl-1H-indol-1-yl)methyl)benzamide]	6.79	0.00511		IC50 (HDAC2): 11.9 µM; IC50 (HDAC8; [3]): 0.911 µM; IC50 (HDAC9): 14.5 µM
CCN(CC)Cc1ccc(C(=O)NO)cc1 [Compound 51, 4-((Diethylamino)methyl)-N-hydroxybenzamide]	> 30	6.28		IC50 (HDAC8; [3]): 9.43 µM
CS(=O)(=O)NCCc1cn(Cc2ccc(C(=O)NO)cc2)c2ccccc12 [Compound 30, N-Hydroxy-4-((3-(2-(methylsulfonamido)ethyl)-1H-indol-1-yl)methyl)benzamide]	0.623	0.00017		
CN(C)c1cccc(Cc2ccc(C(=O)NO)cc2)c1 [Compound 49, 4-(3-(Dimethylamino)benzyl)-N-hydroxybenzamide]	12.2	0.0701		
CC(C)N(Cc1ccc(C(=O)NO)cc1)C(C)C [Compound 53, 4-((Diisopropylamino)methyl)-N-hydroxybenzamide]	23.8	0.124		IC50 (HDAC8; [3]): 1.92 µM
Cc1cn(Cc2ccc(C(=O)NO)cc2)c2ccccc12 [drawing 159]				IC50 (Human HDAC1; [4]): 6.79 ± 0.29 µM; IC50 (Human HDAC6; [5]): 0.0051 ± 0.0008 µM; BEI (Human HDAC6): 29.6; IC50 (HDAC8; [6]): 0.911 ± 0.042 µM
COC[C@H]1CCCN1Cc1ccc(C(=O)NO)cc1 [Compound 61]	> 30	1.25		IC50 (HDAC8; [3]): 5.59 µM
O=C(NO)c1ccc(Cn2cccn2)cc1 [Compound 43, 4-((1H-Pyrazol-1-yl)methyl)-N-hydroxybenzamide]	1.47	0.0109		
O=C(NO)c1ccc(Cn2cnc3cncnc32)cc1 [drawing 143]			270	
Cc1nc2ccccc2n1Cc1ccc(C(=O)NO)cc1 [Compound 32, N-hydroxy-4-((2-methyl-1H-benzo[d]imidazol-1-yl)methyl)benzamide]	8.79	0.0092		
O=C(NO)c1ccc(Cn2cnc3ccccc32)cc1 [Compound 27, 4-((1H-Benzo[d]imidazol-1-yl)methyl)-N-hydroxybenzamide.TFA]	8.54	0.0294		
Cc1cc2ccccc2n1Cc1ccc(C(=O)NO)cc1 [drawing 137]			2127	IC50 (HDAC2): 8.14 µM; IC50 (HDAC9): 18.3 µM
O=C(NO)c1ccc(Cn2cnc3cncnc32)cc1 [Compound 12, 4-((9H-Purin-9-yl)methyl)-N-hydroxybenzamide]	0.94	0.00348		
Cc1cn(Cc2ccc(C(=O)NO)cc2)c2ccccc12 [drawing 138]			1329	IC50 (HDAC2): 11.9 µM; IC50 (HDAC9): 14.5 µM
O=C(NO)c1ccc(CN2CCCC2)cc1 [Compound 57, N-Hydroxy-4-(pyrrolidin-1-ylmethyl)benzamide.TFA]	29	0.54		IC50 (HDAC8; [3]): 1.2 µM
CC(C)c1nc2ccccc2n1Cc1ccc(C(=O)NO)cc1 [Compound 39, N-Hydroxy-4-((2-isopropyl-1H-benzo[d]imidazol-1-yl)methyl)benzamide]	27.7	0.047		
O=C(NO)c1ccc(Cn2cnc3ncncc32)cc1 [Compound 14, 4-((7H-Purin-7-yl)methyl)-N-hydroxybenzamide]	3.56	0.0142		
O=C(NO)c1ccc(Cn2cc(Cc3ccccc3)c3ccccc32)cc1 [Compound 10, 4-((3-Benzyl-1H-indol-1-yl)methyl)-N-hydroxybenzamide]	13.2	0.0293		IC50 (HDAC8; [3]): 0.324 µM
O=C(NO)c1ccc(CN2CCCC2)cc1 [drawing 150]			54	
O=C(NO)c1ccc(Cn2ccc3ccccc32)cc1 [drawing 136]			598	IC50 (HDAC2): 9.19 µM; IC50 (HDAC9): 8.16 µM

Structure (SMILES)	IC50 (Human HDAC1; [1]) [µM]	IC50 (Human HDAC6; [2]) [µM]	HDAC6 Selectivity (HDAC1/HDAC6) (Human HDAC6)	also measured
CC(=O)NCCCc1nc2ccccc2n1Cc1ccc(C(=O)NO)cc1 [Compound 36, 4-((2-(3-Acetamidopropyl)-1H-benzo[d]imidazol-1-yl)methyl)-N-hydroxybenzamide.TFA]	14.7	0.047		
Cc1c(C)n(Cc2ccc(C(=O)NO)cc2)c2ccccc12 [Compound 8, 4-((2,3-Dimethyl-1H-indol-1-yl)methyl)-N-hydroxybenzamide]	12.2	0.00408		
NC(=O)c1ccc(Cn2ccc3ccccc32)cc1 [Compound 22, 4-((1H-Indol-1-yl)methyl)benzamide]	> 30	> 30		
CN(C)c1ccc(Cc2ccc(C(=O)NO)cc2)cc1 [Compound 47, 4-(4-(Dimethylamino)benzyl)-N-hydroxybenzamide]	6.87	0.0119		
O=C(NO)c1ccc(Cc2ccncc2)cc1 [Compound 45, N-Hydroxy-4-(pyridin-4-ylmethyl)benzamide]	6.47	0.0358		
O=C(NO)c1ccc(CN(c2ccccc2)c2ccccc2)cc1 [drawing 162]				IC50 (Human HDAC1; [4]): 6.66 ± 0.51 µM; BEI (Human HDAC6): 26.3; IC50 (HDAC8; [6]): 2.38 ± 0.25 µM
O=C(NO)c1ccc(Cn2cccn2)cc1 [drawing 148]			135	
Cc1c(CN(C)C)c2ccccc2n1Cc1ccc(C(=O)NO)cc1 [Compound 21, 4-((3-((Dimethylamino)methyl)-2-methyl-1H-indol-1-yl)methyl)-N-hydroxybenzamide]	3.09	0.00146		
Cc1cc2ccccc2n1Cc1ccc(C(=O)NO)cc1 [drawing 158]				IC50 (Human HDAC1; [4]): 5.34 ± 0.16 µM; IC50 (Human HDAC6; [5]): 0.0025 ± 0.0004 µM; BEI (Human HDAC6): 30.7; IC50 (HDAC8; [6]): 0.397 ± 0.099 µM
O=C(NO)c1ccc(Cn2ccc3ccccc32)cc1 [drawing 157]				IC50 (Human HDAC1; [4]): 5.83 ± 0.7 µM; IC50 (Human HDAC6; [5]): 0.0097 ± 0.0003 µM; BEI (Human HDAC6): 30.1; IC50 (HDAC8; [6]): 0.417 ± 0.04 µM
Cc1c(CN)c2ccccc2n1Cc1ccc(C(=O)NO)cc1	3.09	0.00146	2116	
CN(C)CCc1nc2ccccc2n1Cc1ccc(C(=O)NO)cc1 [Compound 38, 4-((2-(2-(Dimethylamino)ethyl)-1H-benzo[d]imidazol-1-yl)methyl)-N-hydroxybenzamide]	52.4	0.126		
O=C(NO)c1ccc(Cc2ccncc2)cc1 [drawing 145]			181	
O=C(NO)c1ccc(Cn2cccc2)cc1 [Compound 41, 4-((1H-Pyrrol-1-yl)methyl)-N-hydroxybenzamide]	5.73	0.0313		
O=C(NO)c1ccc(Cn2cnc3ncncc32)cc1 [drawing 144]			251	
COC[C@@H]1CCCN1Cc1ccc(C(=O)NO)cc1 [Compound 59, (S)-N-Hydroxy-4-((2-(methoxymethyl)pyrrolidin-1-yl)methyl)benzamide.TFA]	27.9	0.15		IC50 (HDAC8; [3]): 1.82 µM
CN1CCN(CCc2cn(Cc3ccc(C(=O)NO)cc3)c3ccccc23)CC1 [drawing 142]	1.23	0.00294	418	IC50 (HDAC8; [3]): 0.174 µM
CCN(CC)Cc1ccc(C(=O)NO)cc1 [drawing 153]			>5	
CC(=O)c1ccc(Cn2ccc3ccccc32)cc1 [Compound 23, 1-(4-((1H-Indol-1-yl)methyl)phenyl)ethanone]	> 30	> 30		
CN1CCN(CCc2cn(Cc3ccc(C(=O)NO)cc3)c3ccccc23)CC1 [Compound 17, N-Hydroxy-4-{3-[2-(4-methyl-piperazin-1-yl)-ethyl]-indol-1-ylmethyl}-benzamide]	1.23	0.00294		IC50 (HDAC8; [3]): 0.174 µM
O=C(NO)c1ccc(Cn2cc(Cc3ccccc3)c3ccccc32)cc1 [drawing 140]			451	
CN(C)c1ccc(Cc2ccc(C(=O)NO)cc2)cc1 [drawing 146]			577	

From US9249087B2, “HDAC inhibitors and therapeutic methods using the same” (THE BOARD OF TRUSTEES OF THE UNIVERSITY OF ILLINOIS, priority 2011, dated 2016)
